The values that follow come from patent US9770439B2, “Hepatitis C virus inhibitors” (priority 2013, dated 2017).

Assay [1] concerns HCV replicon, genotype 1a L31V variant with leucine 31 changed to valine in the NS5A protein. In kind it is cell-based. The note with it: genotype 1a L31V replicon; test compound titrated with compound N47 fixed at 200 nM versus titrated singly. A general note: A replicon is a self-replicating genome or part of one, used to study replication in cells.
Assay [2] relates to HCV replicon, genotype 1a Y93H variant with tyrosine 93 changed to histidine in the NS5A protein. In kind it is cell-based. The note with it: genotype 1a Y93H replicon; test compound titrated with compound N47 fixed at 200 nM versus titrated singly. As for the experimental part: Combinations can be examined for synergistic activity using a variety of putative NS5A-targeting compounds and a variety of test compounds. […] The test compound can be chosen from compounds exemplified below, which were prepared by methods known in the art, or from others disclosed in the literature.
Similarly, BMS-790052 can be tested singly and in combination with a fixed amount of compound N47 in the HCV replicon cell based assay consisting of the genotype 1a Y93H variant with tyrosine 93 changed to histidine in the NS5A protein.

With `O=C(Cc1ccccc1)N1CCCC1c1nc2cc(-c3ccc4nc([C@@H]5CCCN5C(=O)Cc5ccccc5)[nH]c4c3)ccc2[nH]1` (stereo partly shown), the “Fold - Synergistic G-1a (L31V)” value in assay [1] is below 10 Fold. For the same compound, the “Fold - Synergistic G-1a (Y93H)” value in assay [2] is recorded as below 10 Fold. As to `CN(C)[C@@H](C(=O)N1CCC[C@H]1C(=O)Nc1cccc(-c2ncc(-c3ccc4nc([C@@H]5CCCN5C(=O)[C@@H](c5ccccc5)N(C)C)[nH]c4c3)o2)c1)c1ccccc1`, the “Fold - Synergistic G-1a (Y93H)” value in assay [2] is given as 10 Fold. With `Cc1nc2cccc(-c3ncc(-c4ccc5nc([C@@H]6CCCN6C(=O)[C@@H](c6ccccc6)N(C)C)[nH]c5c4)o3)c2[nH]1`, in assay [1], the “Fold - Synergistic G-1a (L31V)” value is on record as above 10 Fold.

Take `COC(=O)N[C@@H](C(=O)N1CCC[C@H]1c1nc2ccc(C3=NCC(c4ccc(N5CCOCC5)cc4)O3)cc2[nH]1)c1ccccc1` (stereo partly shown): the “Fold - Synergistic G-1a (L31V)” value in assay [1] is reported as below 10 Fold. For the same compound, the “Fold - Synergistic G-1a (Y93H)” value in assay [2] was below 10 Fold. Turning to `COC(=O)N[C@@H](C(=O)N1CCCC1c1ncc(-c2ccc(-c3ccc(-c4cnc([C@@H]5CCCN5C(=O)[C@H]5CCCO5)[nH]4)cc3)cc2)[nH]1)c1ccccc1` (stereo partly shown), the “Fold - Synergistic G-1a (L31V)” value in assay [1] is given as below 10 Fold. Besides, the “Fold - Synergistic G-1a (Y93H)” value in assay [2] is on record as below 10 Fold. On to `CN(C)[C@@H](C(=O)N1CCC[C@H]1C1=NC(c2ccc(OCc3ccc(-c4c[nH]c([C@@H]5CCCN5C(=O)[C@@H](c5ccccc5)N(C)C)n4)cc3)cc2)CN1)c1ccccc1` (stereo partly shown), for which, in assay [1], the “Fold - Synergistic G-1a (L31V)” value is reported as below 10 Fold. Also, the “Fold - Synergistic G-1a (Y93H)” value in assay [2] is reported as below 10 Fold. In the case of `CN(C)[C@H](C(=O)N1CCCC[C@H]1c1ncc(-c2ccc(-c3ccc(-c4cnc([C@@H]5CCCCN5C(=O)[C@@H](c5ccccc5)N(C)C)[nH]4)cc3)cc2)[nH]1)c1ccccc1`, the “Fold - Synergistic G-1a (L31V)” value in assay [1] is given as below 10 Fold. In assay [2], the “Fold - Synergistic G-1a (Y93H)” value is reported as above 10 Fold. Take `COC(=O)N[C@H](C(=O)N1CCCC1c1nc2ccc(C#CC#Cc3ccc4nc([C@@H]5CCCN5C(=O)[C@@H](NC(=O)OC)C(C)C)[nH]c4c3)cc2[nH]1)C(C)C` (stereo partly shown): the “Fold - Synergistic G-1a (L31V)” value in assay [1] is reported as above 100 Fold. For the same compound, in assay [2], the “Fold - Synergistic G-1a (Y93H)” value is given as above 10 Fold. For `CC[C@H]1CC[C@@H](c2ncc(-c3ccc(-c4ccc(-c5cnc([C@@H]6CC[C@H](CC)N6C(=O)[C@@H](NC(=O)OC)C(C)C)[nH]5)cc4)cc3)[nH]2)N1C(=O)C(NC(=O)OC)C(C)C` (stereo partly shown), in assay [1], the “Fold - Synergistic G-1a (L31V)” value is listed as above 100 Fold. Besides, in assay [2], the “Fold - Synergistic G-1a (Y93H)” value is recorded as above 100 Fold. Take `COC(=O)N[C@H](C(=O)N1[C@@H]2C[C@@H]2C[C@H]1c1ncc(-c2ccc(C#Cc3ccc(-c4cnc([C@@H]5C[C@H]6C[C@H]6N5C(=O)[C@@H](NC(=O)OC)C(C)C)[nH]4)cc3)cc2)[nH]1)C(C)C`: in assay [1], the “Fold - Synergistic G-1a (L31V)” value is listed as below 10 Fold. In addition, the “Fold - Synergistic G-1a (Y93H)” value in assay [2] is above 10 Fold. As for `COC(=O)N[C@H](C(=O)N1CC[C@H](C)C1c1ncc(-c2ccc(-c3ccc(-c4cnc([C@@H]5[C@@H](C)CCN5C(=O)[C@@H](NC(=O)OC)C(C)C)[nH]4)cc3)cc2)[nH]1)C(C)C` (stereo partly shown), the “Fold - Synergistic G-1a (L31V)” value in assay [1] was above 100 Fold. For the same compound, the “Fold - Synergistic G-1a (Y93H)” value in assay [2] is above 100 Fold.

`COC(=O)N[C@H](C(=O)N1CCCC1c1ncc(C#Cc2ccc3cc(C#Cc4cnc([C@@H]5CCCN5C(=O)[C@@H](NC(=O)OC)C(C)C)[nH]4)ccc3c2)[nH]1)C(C)C` (stereo partly shown): the “Fold - Synergistic G-1a (L31V)” value in assay [1] is listed as above 10 Fold. In addition, the “Fold - Synergistic G-1a (Y93H)” value in assay [2] was below 10 Fold. `COC(=O)N[C@H](C(=O)CN1C(c2ncc(-c3ccc(C#Cc4ccc5c(ccc6[nH]c([C@@H]7C[C@H]8C[C@H]8N7C(=O)[C@@H](NC(=O)OC)C(C)C)nc65)c4)cc3)[nH]2)C[C@H]2C[C@H]21)C(C)C` (stereo partly shown): the “Fold - Synergistic G-1a (L31V)” value in assay [1] is given as below 10 Fold. Moreover, the “Fold - Synergistic G-1a (Y93H)” value in assay [2] is above 10 Fold. Consider `COC(=O)N[C@H](C(=O)CN1[C@@H]2C[C@@H]2C[C@H]1c1nc2ccc3cc(C#Cc4ccc5c(ccc6nc([C@@H]7C[C@H]8C[C@H]8N7C(=O)[C@@H](NC(=O)OC)C(C)C)[nH]c65)c4)ccc3c2[nH]1)C(C)C`, for which the “Fold - Synergistic G-1a (L31V)” value in assay [1] is reported as above 10 Fold. Moreover, the “Fold - Synergistic G-1a (Y93H)” value in assay [2] was above 10 Fold. Regarding `COC(=O)N[C@H](C(=O)N1CCCC1c1nc2ccc(-c3ccc4cc(-c5ccc6nc([C@@H]7CCCN7C(=O)[C@@H](NC(=O)OC)C(C)C)[nH]c6c5)ccc4n3)cc2[nH]1)C(C)C` (stereo partly shown), the “Fold - Synergistic G-1a (L31V)” value in assay [1] was above 10 Fold. In assay [2], the “Fold - Synergistic G-1a (Y93H)” value is given as above 10 Fold.

Consider `COC(=O)N[C@H](C(=O)N1C2CC2CC[C@H]1c1ncc(-c2ccc(-c3ccc(-c4cnc([C@@H]5CCC6CC6N5C(=O)[C@@H](NC(=O)OC)C(C)C)[nH]4)cc3)cc2)[nH]1)C(C)C` (stereo partly shown), for which, in assay [1], the “Fold - Synergistic G-1a (L31V)” value is given as above 100 Fold. Moreover, in assay [2], the “Fold - Synergistic G-1a (Y93H)” value is reported as above 100 Fold. As to `COC(=O)N[C@H](C(=O)N1[C@@H]2C[C@@H]2C[C@H]1C(=O)Nc1ccc(C23CCC4C5CC6(c7ccc(NC(=O)[C@@H]8C[C@H]9C[C@H]9N8C(=O)[C@@H](NC(=O)OC)C(C)C)cc7)CC4C(C2)C(C6)C5C3)cc1)C(C)C`, in assay [1], the “Fold - Synergistic G-1a (L31V)” value is below 10 Fold. In assay [2], the “Fold - Synergistic G-1a (Y93H)” value is recorded as below 10 Fold. In the case of `COC(=O)N[C@H](C(=O)N1C(c2ncc(-c3ccc(-c4ccc(-c5cnc([C@@H]6CCC7CC7N6C(=O)[C@@H](NC(=O)OC)C(C)C)[nH]5)cc4)cc3)[nH]2)CCC2CC21)C(C)C` (stereo partly shown), in assay [1], the “Fold - Synergistic G-1a (L31V)” value is recorded as above 100 Fold. In addition, the “Fold - Synergistic G-1a (Y93H)” value in assay [2] is reported as above 100 Fold. On to `COC(=O)N[C@H](C(=O)N1[C@H]2C[C@@]2(C)C[C@H]1c1ncc(-c2ccc(-c3ccc(-c4cnc([C@@H]5C[C@@H]6C[C@@H]6N5C(=O)[C@@H](NC(=O)OC)C(C)C)[nH]4)cc3)cc2)[nH]1)C(C)C`, for which the “Fold - Synergistic G-1a (L31V)” value in assay [1] is listed as above 100 Fold. Besides, the “Fold - Synergistic G-1a (Y93H)” value in assay [2] is listed as above 100 Fold. In the case of `COC(=O)N[C@H](C(=O)N1C[C@@H](C)CC1c1ncc(-c2ccc(-c3ccc4cc(-c5cnc([C@@H]6C[C@H](C)CN6C(=O)[C@@H](NC(=O)OC)C(C)C)[nH]5)ccc4c3)cc2)[nH]1)C(C)C` (stereo partly shown), the “Fold - Synergistic G-1a (L31V)” value in assay [1] was below 10 Fold. Besides, in assay [2], the “Fold - Synergistic G-1a (Y93H)” value is listed as above 10 Fold. Regarding `COC(=O)N[C@H](C(=O)N1C[C@H](C)C[C@H]1c1ncc(-c2ccc(-c3ccc4cc(-c5cnc([C@@H]6C[C@@H](C)CN6C(=O)[C@@H](NC(=O)OC)C(C)C)[nH]5)ccc4c3)cc2)[nH]1)C(C)C`, the “Fold - Synergistic G-1a (L31V)” value in assay [1] is below 10 Fold. Besides, the “Fold - Synergistic G-1a (Y93H)” value in assay [2] is above 10 Fold.

In the case of `COC(=O)N[C@H](C(=O)N1CCCC1c1cn(-c2ccc(-c3ccc(-n4cnc([C@@H]5CCCN5C(=O)[C@@H](NC(=O)OC)C(C)C)c4)cc3)cc2)cn1)C(C)C` (stereo partly shown), the “Fold - Synergistic G-1a (L31V)” value in assay [1] is above 10 Fold. Also, in assay [2], the “Fold - Synergistic G-1a (Y93H)” value is above 10 Fold.

As for `COC(=O)N[C@H](C(=O)N1C(c2ncc(-c3ccc(-c4cc5cc(-c6c[nH]c([C@@H]7C[C@H]8C[C@H]8N7C(=O)[C@@H](NC(=O)OC)C7CCOCC7)n6)ccc5o4)cc3)[nH]2)C[C@H]2C[C@H]21)C1CCOCC1` (stereo partly shown), in assay [1], the “Fold - Synergistic G-1a (L31V)” value is below 10 Fold. Besides, the “Fold - Synergistic G-1a (Y93H)” value in assay [2] is below 10 Fold. `COC(=O)N[C@H](C(=O)N1C2C[C@@H]2C[C@H]1c1ncc(-c2ccc(C#Cc3ccc(-c4cnc([C@@H]5C[C@H]6C[C@H]6N5C(=O)[C@@H](NC(=O)OC)C(C)C)[nH]4)cc3)cc2)[nH]1)C(C)C` (stereo partly shown): in assay [1], the “Fold - Synergistic G-1a (L31V)” value is listed as below 10 Fold. Also, in assay [2], the “Fold - Synergistic G-1a (Y93H)” value was above 10 Fold.
